Measurements: patent US8865741B2, “Aminoindane compounds and use thereof in treating pain” (Asana Biosciences, LLC, priority 2011, dated 2014)

Assays:
[1] = tested on: sodium channel in hTRPV1-N1E115 cells; assay: FLIPR membrane potential assay of sodium channel response in hTRPV1-N1E115 cells, with (47° C.) or without (25° C.) heat activation of hTRPV1; assay type: cell-based; conditions: for hTRPV1-N1E Nav 0.1 mM (% inhibition) 25° C. / hTRPV1-N1E Nav 1 mM (% inhibition) 25° C.: 25° C. (no heat activation of hTRPV1); for hTRPV1-N1E Nav 0.1 mM (% inhibition) 47° C. / hTRPV1-N1E Nav 1 mM (% inhibition) 47° C.: 47° C. (heat activation of hTRPV1); for IC50: 47° C., class symbols, read-out: hTRPV1-N1E IC50 (μM) 47° C.
Text: In one embodiment, a modified FLIPR® (Fluorometric Imaging Plate Reader) based assay system was developed which is capable of discriminating between non-specific versus hTRPV1-mediated entry of test compounds. Advantageously, the assay system utilizes heat activated opening of hTRPV1 channels followed by an assessment of internal sodium channel block. The assay allows a permanently charged compound to selectively enter through opened hTRPV1 channels and that compound's potency in inhibiting sodium channels from the cytoplasm side of the same cell can be assessed and quantified.
The assay is readily performed in multi-well assay plates into which cells in growth media are added and incubated under conditions which permit the formation of a confluent monolayer over a period of hours prior to the start of the assay. Conventional culture media and conditions may be utilized. Duplicate cell assay plates are prepared for each experiment.
The spent media from the cell seeded plates is removed on the day of the assay and replaced with Membrane potential Dye-Blue (Molecular Devices). The dye was prepared in assay buffer following manufacturer's instructions. The dye-loaded plate is incubated at room temperature (about 25° C.) for about 30 minutes in order to pre-load the cells with dye. Optionally, the cells may be loaded with the dye simultaneously with adding the test compounds.
The test compounds are diluted in the Assay Buffer and added to each well of a specific 384-well ‘compound plate’, which serves as a source plate for compound addition using the FLIPR® platform. The concentration of compounds in the compound-plate was adjusted to achieve the desired final concentration when added to the cells in the ‘cell-plate’. After completion of the dye incubation period, the dye loaded cell-plates and the compound source plates are inserted into the FLIPR® Tetra™ device with a 384 FLIPR® tip box (Molecular Devices, Inc.) according to manufacturer's instructions. The compounds are robotically added to the dye loaded cell-plates using software integral to the FLIPR® Tetra™ instrument.
Immediately following compound addition, hTRPV1 is activated, in one of the duplicate cell plates, by heating. Specifically, entire multi-well plate containing the compound-cells mixture is incubated at 47° C. for 10 minutes, after which they are returned to room temperature (about 25° C.) for a further 30 minutes. Heat activation of hTRPV1 was omitted from the replicate cell plate which was simply maintained at room temperature for the entire 40 minutes.
A membrane potential response is elicited in the dye- and compound-loaded cells by the addition of veratridine which is a known sodium channel ‘agonist’. As illustrated in an example herein, an agonist plate containing veratridine (Sigma) is prepared in advance and is inserted into suitable devices such as, e.g., the FLIPR® TETRA® device for a “2nd addition” as instructed by the manufacturer. The concentration of veratridine in the ‘agonist plate’ was adjusted to achieve a final concentration of 100 μM when added to the cells in the cell-plate. Final concentrations of veratridine greater or lesser than 100 μM may also be used but the signal measured by the FLIPR®^Tetra™ device or another suitable device may vary accordingly.
The exposure of the cells in the cell-plate to veratridine induces sodium channels in the cells to open and the resulting ion flux produces a membrane potential depolarization that is detected as a fluorescence signal by the FLIPR® ^Tetra™ Device. The activity of test compounds is determined by their ability to attenuate the veratridine-induced fluorescence signal, the most promising compounds are those that show an enhanced activity in the heat-activated cell plate over the non-heat-activated cell plate. […]

[2] = tested on: Male Sprague Dawley (SD) rats; assay: In vivo assay of mechanical nociception (rat pinch model, perisciatic injection); conditions: test compound 0.5%, lidocaine 2%, total injection 100 μL, perisciatic

Compound | hTRPV1-N1E Nav 0.1 mM (% inhibition) 25° C. [1] [%] | hTRPV1-N1E Nav 0.1 mM (% inhibition) 47° C. [1] | hTRPV1-N1E Nav 1 mM (% inhibition) 25° C. [1] | hTRPV1-N1E Nav 1 mM (% inhibition) 47° C. [1] | IC50 [1] [µM] | Average Time of Analgesia [2] [h]
C[N+]1(C)CCCCC1CCN(c1ccccc1F)C1Cc2ccccc2C1.[I-] (stereo not shown) [Example 4, 1,1-dimethyl-2-[2-((2-fluorophenyl)(indan-2-yl)amino)ethyl]piperidinium iodide] | 0 | 94.7 (N = 3) % | 0 (N = 3) % | 67.0 (N = 3) % | 10 to 100 | 1
CC[N+]1(CC)CCCCC1CN(c1ccc(C)cc1)C1Cc2ccccc2C1.[I-] (stereo not shown) [Example 30, 1,1-Diethyl-2-[((indan-2-yl)(4-methylphenyl)amino)methyl]piperidinium iodide] | 59.4 | 97.2 (N = 2) % | Insoluble | Insoluble |  | 
C[N+]1(C)CCCCC1CN(c1cccc(F)c1)C1Cc2ccccc2C1.[I-] (stereo not shown) [Example 31, 1,1-Dimethyl-2-[((3-fluorophenyl)(indan-2-yl)amino)methyl]piperidinium iodide] | 3.8 | 62.6 (N = 2) % | Insoluble | Insoluble |  | 
C[N+]1(C)CCCC[C@H]1CN(c1ccccc1)C1Cc2ccccc2C1 [Example 32, (S)-1,1-Dimethyl-2-[((indan-2-yl)(phenyl)amino)methyl]piperidinium iodide] |  |  |  |  | 10 to 100 | 
C[N+]1(C)CCCC[C@@H]1CN(c1ccccc1)C1Cc2ccccc2C1 [Example 33, (R)-1,1-Dimethyl-2-[((indan-2-yl)(phenyl)amino)methyl]piperidinium iodide] |  |  |  |  | 10 to 100 | 
Cc1ccccc1N(CC[C@@H]1CCCC[N+]1(C)C)C1Cc2ccccc2C1 [Example 34, (S)-1,1-Dimethyl-2-[2-((indan-2-yl)(2-methylphenyl)amino)ethyl]piperidinium iodide] |  |  |  |  | 10 to 100 | 
Cc1ccccc1N(CC[C@H]1CCCC[N+]1(C)C)C1Cc2ccccc2C1 [Example 35, (R)-1,1-Dimethyl-2-[2-((indan-2-yl)(2-methylphenyl)amino)ethyl]piperidinium iodide] |  |  |  |  | 10 to 100 | 
CC[N+]1(CC)CCCC1CCN(c1ccccc1)C1Cc2ccccc2C1.[I-] (stereo not shown) [Example 36, 1,1-diethyl-2-[2-((indan-2-yl)(phenyl)amino)ethyl]pyrrolidinium iodide] | 5.4 | 74.0 (N = 2) % |  |  | 10 to 100 | 
C[N+]1(C)CCCCC1CCN(c1ccccn1)C1Cc2ccccc2C1.[I-] (stereo not shown) [Example 37, 1,1-dimethyl-2-[2-((indan-2-yl)(pyridine-2-yl)amino)ethyl]piperidinium iodide] | 21.5 | 60.7 (N = 2) % | 59.5 (N = 2) % | 24.0 (N = 2) % | 10 to 100 | 
C[N+]1(C)CCCCC1CCN(c1ncccn1)C1Cc2ccccc2C1.[I-] (stereo not shown) [Example 38, 1,1-dimethyl-2-[2-((indan-2-yl)(pyrimidine-2-yl)amino)ethyl]piperidinium iodide] | 25.9 | 37.5 (N = 2) % | 46.6 (N = 2) % | 70.4 (N = 2) % |  | 
C[N+]1(C)CCCCC1CCN(c1nccs1)C1Cc2ccccc2C1.[I-] (stereo not shown) [Example 39, 1,1-dimethyl-2-[2-((indan-2-yl)(thiazol-2-yl)amino)ethyl]piperidinium iodide] | 10.6 | 11.3 (N = 2) % | 31.3 (N = 2) % | 62.4 (N = 2) % |  | 
Cc1ccccc1N(CCC1CC[N+](C)(C)CC1)C1Cc2ccccc2C1.[Br-] [Example 40, 1,1-dimethyl-4-[2-((indan-2-yl)(2-methylphenyl)amino)ethyl]piperidinium bromide] | 34.3 |  |  |  | 10 to 100 | 
Cc1ccccc1N(CCC1CCCC[N+]12CCOCC2)C1Cc2ccccc2C1.[Cl-] (stereo not shown) [Example 41, 7-[2-((indan-2-yl)(2-methylphenyl)amino)ethyl]-3-oxa-6-azaspiro[5.5]undecan-6-ium chloride] | 8.3 |  |  |  | 10 to 100 | 
C[N+]1(C)CCCCC1CCN(c1ccc2c(c1)OCCO2)C1Cc2ccccc2C1.[I-] (stereo not shown) [Example 42, 1,1-dimethyl-2-[2-((2,3-dihydrobenzo[b][1,4]dioxin-6-yl)(indan-2-yl)amino)ethyl]piperidinium iodide] | 0 | 64.9 (N = 2) % |  |  |  | 
Cc1ccccc1N(CCC1CC[N+](C)(C)CC1)C1Cc2ccccc2C1.[I-] [Example 45, 1,1-Dimethyl-4-[2-((indan-2-yl)(2-methylphenyl)amino)ethyl]piperidinium iodide] | 23.1 | 83.3 (N = 2) % |  |  |  | 
Cc1ccccc1N(CCC1CCCC[N+]1(CCO)CCO)C1Cc2ccccc2C1.[Br-] (stereo not shown) [Example 46, 1,1-Bis(2-hydroxyethyl)-2-[2-((indan-2-yl)(2-methylphenyl)amino)ethyl]piperidinium bromide] | 31.8 | 94.4 (N = 2) % |  |  | 10 to 100 | 
Cc1cccc(N(CCC2CCCC[N+]2(C)C)C2Cc3ccccc3C2)n1.[I-] (stereo not shown) [Example 47, 1,1-Dimethyl-2-[2-((indan-2-yl)(6-methylpyridine-2-yl)amino)ethyl]piperidinium iodide] | 30.7 | 79.5 (N = 2) % |  |  | 10 to 100 | 
Cc1cccc(N(CCC2CCCC[N+]2(C)C)C2Cc3ccccc3C2)n1.[Br-] (stereo not shown) [Example 48, 1,1-Dimethyl-2-[2-((indan-2-yl)(6-methylpyridine-2-yl)amino)ethyl]piperidinium bromide] | 29.6 |  |  |  | 10 to 100 | 
CC[N+]1(CC)CCCC[C@H]1CCN(c1ccccc1)C1Cc2ccccc2C1.[Br-] [Example 49, (S)-1,1-Diethyl-2-[2-((indan-2-yl)(phenyl)amino)ethyl]piperidinium bromide] | 22.2 |  |  |  | 10 to 100 | 
Cc1ccccc1N(CCC1CCCC[N+]1(C)C)C1Cc2ccccc2C1 (stereo not shown) [Example 50, 1,1-Dimethyl-2-[2-((indan-2-yl)(2-methylphenyl)amino)ethyl]piperidinium chloride] |  |  |  |  | 10 to 100 | 
Cc1ccccc1N(CC[C@H]1CCCC[N+]1(C)C)C1Cc2ccccc2C1 [Example 51, (R)-1,1-Dimethyl-2-[2-((indan-2-yl)(2-methylphenyl)amino)ethyl]piperidinium chloride] |  |  |  |  | 1 to 10 | 
Cc1ccccc1N(CCC1CCCC[N+]1(C)C)C1Cc2ccccc2C1 (stereo not shown) [Example 52, 1,1-Dimethyl-2-[2-((indan-2-yl)(2-methylphenyl)amino)ethyl]piperidinium bromide] |  |  |  |  | 10 to 100 | 
